{
  "source": "paper PMC6930675",
  "about": "“Discovery and Characterisation of Dual Inhibitors of Tryptophan 2,3-Dioxygenase (TDO2) and Indoleamine 2,3-Dioxygenase 1 (IDO1) Using Virtual Screening” (Molecules, 2019)",
  "key": {"IDO1 (SKOV3 cells)": {"target": "T1, IDO1 (SKOV3 cells) (Homo sapiens, UniProt P14902)", "T1 construct": "identify cell lines endogenously expressing only IDO1, only TDO2, and both enzymes simultaneously; endogenous in cells; host or cells: SKOV3 ovarian cancer cell line", "T1 sequence (P14902 whole entry)": "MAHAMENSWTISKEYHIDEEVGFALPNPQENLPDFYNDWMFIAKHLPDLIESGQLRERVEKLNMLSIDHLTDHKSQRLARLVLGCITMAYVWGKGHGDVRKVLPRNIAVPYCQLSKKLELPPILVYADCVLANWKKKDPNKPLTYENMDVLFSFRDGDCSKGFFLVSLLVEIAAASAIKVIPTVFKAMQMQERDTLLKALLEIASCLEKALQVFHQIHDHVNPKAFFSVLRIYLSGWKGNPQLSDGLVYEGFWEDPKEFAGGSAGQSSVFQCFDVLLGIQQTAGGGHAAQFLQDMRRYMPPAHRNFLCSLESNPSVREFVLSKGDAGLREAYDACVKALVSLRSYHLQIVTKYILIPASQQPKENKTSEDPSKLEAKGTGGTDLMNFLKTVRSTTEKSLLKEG", "experiment": "Cell based kynurenine assay in SKOV3 ovarian line (IDO1 expressor)", "details": "for IC50: SKOV3 (IDO1), 18 h, read-out: IC50, inhibition of kynurenine secretion", "protocol": "(§1) Breast cancer cell lines MCF7, MDA-MB-231, BT549, Hs578T; ovarian cell line SKOV3; glioblastoma cell line A172 and lung cancer cell line H460 were grown in α-MEMGibco, Grand Island, NY, USA; ThermoFisher catalogue number 12000022) containing 5% foetal calf serum (Moregate Biotech, Hamilton, New Zealand), insulin/transferrin/selenium supplement (Roche, Ref-11074547001), added according to the manufacturer’s instructions, as well as penicillin/streptomycin (100 U/mL and 100 μg/mL, respectively). The amount of kynurenine produced by the cells was measured as described previously. Briefly, a well of a 96-well plate received 3.7 × 10^4 cells which were subsequently cultured with the addition of 50 μM ([…] and SKOV3 cells) or 100 μM (A172 cells) of L-tryptophan (Sigma-Aldrich, St Louis, MO, USA) with or without test compounds at 37 °C, 5% CO2 for 18 h. The cell number seeded was optimised to produce levels of kynurenine <40% of initial tryptophan to avoid tryptophan starvation and to ensure steady-state IDO1/TDO2 kinetics. Next, the culture supernatants were transferred into a fresh 96-well plate, incubated with trichloroacetic acid (10% final concentration) for 20 min at 60 °C to release kynurenine from the cells and precipitate proteins. After spinning the plates for 20 min at 2500 g, the supernatants were mixed at a 1:1 ratio with 4-(dimethylamino)benzaldehyde (20 mg/mL in acetic acid; Sigma) and the absorbance was read at 480 nm on an EnSpire 2300 Multimode Plate Reader (Perkin-Elmer, Singapore, Singapore). The remaining cells in the 96-well plate received a well-established indicator of cellular metabolic activity WST-1 (Roche Diagnostics Cat No 05015944, Basel, Switzerland; 10% diluted in culture media). After 1 h of incubation at 37 °C, the absorbance was measured at 440 nm. WST-1 is reduced on the outer membrane of viable cells to a soluble formazan by reducing equivalents such as NAD(P)H. The absorbance measured at 440 nm indicates the number of metabolically active cells in the culture and represents a surrogate marker of cell viability.\n(§2) All experiments were repeated independently at least twice in technical quadruplicates. Calculations and graph plotting were performed in Prism (v8, 2018; GraphPad software, San Diego, CA, USA) and R computing environment (v3.5.3, 2019, 64-bit, Vienna, Austria). IC50 of the compounds in cellular enzymatic activity compared to untreated control cells was determined by fitting data to an equation f(x) = A + B/(1 + (IC50/X)^HILL) in Prism; where A is the minimum and B is the maximum of the curve, HILL is the slope of the curve and X is the compound concentration."}, "TDO2": {"tested_on": "TDO2", "set-up": "method as in PMID 27096472, PMID 28105265, PMID 26348881, PMID 22616902", "details": "cited from earlier work; for IC50: test library, read-out: IC50 (TDO2 active compounds of the test library)"}, "IDO1/TDO2 (BT549 cells)": {"tested_on": "IDO1/TDO2 (BT549 cells)", "experiment": "Cell based kynurenine assay in BT549 breast line (dual IDO1/TDO2 expressor)", "set-up": "species or system human", "protocol": "(§3) Breast cancer cell lines MCF7, MDA-MB-231, BT549, Hs578T; ovarian cell line SKOV3; glioblastoma cell line A172 and lung cancer cell line H460 were grown in α-MEMGibco, Grand Island, NY, USA; ThermoFisher catalogue number 12000022) containing 5% foetal calf serum (Moregate Biotech, Hamilton, New Zealand), insulin/transferrin/selenium supplement (Roche, Ref-11074547001), added according to the manufacturer’s instructions, as well as penicillin/streptomycin (100 U/mL and 100 μg/mL, respectively). The amount of kynurenine produced by the cells was measured as described previously. […] After spinning the plates for 20 min at 2500 g, the supernatants were mixed at a 1:1 ratio with 4-(dimethylamino)benzaldehyde (20 mg/mL in acetic acid; Sigma) and the absorbance was read at 480 nm on an EnSpire 2300 Multimode Plate Reader (Perkin-Elmer, Singapore, Singapore). […] After 1 h of incubation at 37 °C, the absorbance was measured at 440 nm. WST-1 is reduced on the outer membrane of viable cells to a soluble formazan by reducing equivalents such as NAD(P)H. The absorbance measured at 440 nm indicates the number of metabolically active cells in the culture and represents a surrogate marker of cell viability. […]"}, "[1]": {"tested_on": "IDO1/TDO2 (SKOV3 and BT549 cell lines)", "experiment": "Single-concentration test of virtual hits for inhibition of kynurenine secretion in SKOV3 and BT549", "assay_type": "cell-based, human", "details": "20 µM", "protocol": "as §1, with “Next, the culture supernatants were transferred into a fresh 96-well plate, incubated with trichloroacetic acid (10% final concentration) for 20 min at 60 °C to release kynurenine from the cells and precipitate proteins.” left out, “The remaining cells in the 96-well plate received a well-established indicator of cellular metabolic activity WST-1 (Roche Diagnostics Cat No 05015944, Basel, Switzerland; 10% diluted in culture media).” left out\nas §2, with “Calculations and graph plotting were performed in Prism (v8, 2018; GraphPad software, San Diego, CA, USA) and R computing environment (v3.5.3, 2019, 64-bit, Vienna, Austria).” left out"}, "[2]": {"tested_on": "BT549 and SKOV3 cell lines", "experiment": "WST-1 assay of cellular metabolic activity / cell viability", "assay_type": "cell-based, human", "details": "20 µM; asterisks in Figure 6A", "protocol": "Breast cancer cell lines MCF7, MDA-MB-231, BT549, Hs578T; ovarian cell line SKOV3; glioblastoma cell line A172 and lung cancer cell line H460 were grown in α-MEMGibco, Grand Island, NY, USA; ThermoFisher catalogue number 12000022) containing 5% foetal calf serum (Moregate Biotech, Hamilton, New Zealand), insulin/transferrin/selenium supplement (Roche, Ref-11074547001), added according to the manufacturer’s instructions, as well as penicillin/streptomycin (100 U/mL and 100 μg/mL, respectively). The amount of kynurenine produced by the cells was measured as described previously. […] After spinning the plates for 20 min at 2500 g, the supernatants were mixed at a 1:1 ratio with 4-(dimethylamino)benzaldehyde (20 mg/mL in acetic acid; Sigma) and the absorbance was read at 480 nm on an EnSpire 2300 Multimode Plate Reader (Perkin-Elmer, Singapore, Singapore). […] After 1 h of incubation at 37 °C, the absorbance was measured at 440 nm. WST-1 is reduced on the outer membrane of viable cells to a soluble formazan by reducing equivalents such as NAD(P)H. The absorbance measured at 440 nm indicates the number of metabolically active cells in the culture and represents a surrogate marker of cell viability."}, "TDO2 (A172 cells)": {"target": "T2, TDO2 (A172 cells) (Homo sapiens, UniProt P48775)", "T2 construct": "identify cell lines endogenously expressing only IDO1, only TDO2, and both enzymes simultaneously; endogenous in cells; host or cells: A172 glioblastoma cell line", "T2 sequence (P48775 whole entry)": "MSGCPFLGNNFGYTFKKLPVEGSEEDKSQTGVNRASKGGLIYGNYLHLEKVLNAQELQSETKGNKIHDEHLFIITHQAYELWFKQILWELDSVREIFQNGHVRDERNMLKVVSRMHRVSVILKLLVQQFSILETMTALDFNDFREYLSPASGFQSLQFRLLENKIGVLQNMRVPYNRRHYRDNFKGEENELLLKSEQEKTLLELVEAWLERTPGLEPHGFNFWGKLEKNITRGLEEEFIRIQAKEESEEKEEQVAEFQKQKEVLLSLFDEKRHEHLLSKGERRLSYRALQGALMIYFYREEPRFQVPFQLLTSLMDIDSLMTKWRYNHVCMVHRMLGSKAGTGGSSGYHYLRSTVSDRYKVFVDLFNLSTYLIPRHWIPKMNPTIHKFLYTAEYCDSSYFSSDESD", "experiment": "Cell based kynurenine assay in A172 glioblastoma line (TDO2 expressor)", "details": "18 h, read-out: IC50, inhibition of kynurenine secretion", "protocol": "as §3"}},
  "note": "Several values for one entry are separate records, joined by “and”; a condition that tells them apart may be missing. Identical values can stand only once.",
  "data": [
    {"smiles": "Fc1ccc2c(/C=C\\c3cccnc3)c[nH]c2c1", "note": "[680C91]", "values": [
      {"measurement": "Effect on kynurenine production, in words", "setting": "IDO1 (SKOV3 cells); SKOV3", "value": "barely affected"}
    ]},
    {"smiles": "FC(F)(F)c1cc(-c2c[nH]nn2)ccn1", "note": "[2c]", "values": [
      {"measurement": "Activity class in the TDO2 test library", "setting": "TDO2", "value": "inactive"}
    ]},
    {"smiles": "CC1=C(CC(=O)c2sccc2Br)C(=O)c2ccccc2C1=O", "note": "[TD34]", "values": [
      {"measurement": "IC50", "setting": "IDO1/TDO2 (BT549 cells); BT549 (IDO1/TDO2), 18 h, read-out: IC50, inhibition of kynurenine secretion", "value": 3.42, "unit": "µM"},
      {"measurement": "Fold higher potency in BT549 than in A172 and SKOV3", "setting": "IDO1/TDO2 (BT549 cells); BT549 versus A172 / SKOV3", "value": "more than 10 fold"},
      {"measurement": "Inhibition of kynurenine production, in words", "setting": "[1]", "value": "inhibited kynurenine production"},
      {"measurement": "IC50", "setting": "IDO1 (SKOV3 cells)", "value": "47.3 µM and ~40 µM"},
      {"measurement": "Toxicity to the BT549 and SKOV3 cell lines", "setting": "[2]", "value": "absence of cell toxicity"},
      {"measurement": "IC50", "setting": "TDO2 (A172 cells)", "value": "37.7 µM and ~40 µM"}
    ]},
    {"smiles": "Nc1nonc1/C(=N/O)Nc1ccc(F)c(Cl)c1", "note": "[5L]", "values": [
      {"measurement": "Inhibition of kynurenine production, in words", "setting": "IDO1 (SKOV3 cells); SKOV3, at 1 µM", "value": "completely inhibited"}
    ]},
    {"smiles": "O=C1Nc2ccccc2/C1=N\\Nc1nc2ccccc2s1", "note": "[2d]", "values": [
      {"measurement": "Activity class in the TDO2 test library", "setting": "TDO2", "value": "inactive"}
    ]},
    {"smiles": "Nc1cccc(-c2c[nH]nn2)c1", "note": "[2a]", "values": [
      {"measurement": "Activity class in the TDO2 test library", "setting": "TDO2", "value": "inactive"}
    ]},
    {"smiles": "O=C1c2ccccc2C(=O)c2c1nnn2Cc1cccc(C(=O)N2CCOCC2)c1", "note": "[1e]", "values": [
      {"measurement": "IC50", "setting": "TDO2", "value": 0.048, "unit": "µM"}
    ]},
    {"smiles": "Brc1cccc(-c2c[nH]nn2)c1", "note": "[2b]", "values": [
      {"measurement": "Activity class in the TDO2 test library", "setting": "TDO2", "value": "inactive"}
    ]},
    {"smiles": "Cc1ccc(C(=O)CC(=O)c2ccccc2OC(C)C)c(O)c1", "note": "[TD18]", "values": [
      {"measurement": "Inhibition of kynurenine secretion", "setting": "[1]", "value": "50% ± 20"},
      {"measurement": "IC50", "setting": "IDO1 (SKOV3 cells)", "value": 28.9, "unit": "µM"}
    ]},
    {"smiles": "COc1ccccc1C(=O)CC(=O)c1ccc(C)cc1O", "note": "[TD12]", "values": [
      {"measurement": "Inhibition of kynurenine secretion", "setting": "[1]", "value": "50% ± 20"}
    ]},
    {"smiles": "O=C(CC1(O)C(=O)Nc2c(Cl)cc(Cl)cc21)c1ccc(Cl)cc1", "note": "(centres unmarked) [2e]", "values": [
      {"measurement": "Activity class in the TDO2 test library", "setting": "TDO2", "value": "inactive"}
    ]},
    {"smiles": "C[C@H]1NS(=O)(=O)c2ccc(-c3c[nH]c4cc(F)ccc34)cc21", "note": "[1b]", "values": [
      {"measurement": "IC50", "setting": "TDO2", "value": 0.027, "unit": "µM"}
    ]},
    {"smiles": "CC1c2cc(-c3c[nH]c4cc(F)ccc34)ccc2S(=O)(=O)N1CC(N)=O", "note": "(centres unmarked) [1a]", "values": [
      {"measurement": "IC50", "setting": "TDO2", "value": 0.026, "unit": "µM"}
    ]},
    {"smiles": "O=S1(=O)NC(CO)c2cc(-c3c[nH]c4cc(F)ccc34)ccc21", "note": "(centres unmarked) [1d]", "values": [
      {"measurement": "IC50", "setting": "TDO2", "value": 0.043, "unit": "µM"}
    ]}
  ]
}
